In PubChem BioAssay (NCI):
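Method: 48-hour compound exposure of cells in 96-well plates, five concentrations, linear interpolation of endpoints. TGI denotes the concentration required for complete inhibition of growth.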

Experiments:
Test in all cases: NCI-60 cell line screen, 48 h
KM12 colon = system: KM12 colon
NCI-H522 lung = system: NCI-H522 lung
M14 melanoma = system: M14 melanoma
NCI-H23 lung = system: NCI-H23 lung
SNB-19 CNS = system: SNB-19 CNS
ACHN renal = system: ACHN renal
UO-31 renal = system: UO-31 renal
SK-MEL-28 melanoma = system: SK-MEL-28 melanoma
HCC-2998 colon = system: HCC-2998 colon
UACC-62 melanoma = system: UACC-62 melanoma
HCT-116 colon = system: HCT-116 colon
COLO 205 colon = system: COLO 205 colon
HCT-15 colon = system: HCT-15 colon
SR leukemia = system: SR leukemia
DU-145 prostate = system: DU-145 prostate
OVCAR-5 ovarian = system: OVCAR-5 ovarian
RXF 393 renal = system: RXF 393 renal
SW-620 colon = system: SW-620 colon
BT-549 breast = system: BT-549 breast
DMS 114 small cell lung = system: DMS 114 small cell lung

SMILES	TGI (KM12 colon)	TGI (NCI-H522 lung)	TGI (M14 melanoma)	TGI (NCI-H23 lung)	TGI (SNB-19 CNS)	TGI (ACHN renal)	TGI (UO-31 renal)	TGI (SK-MEL-28 melanoma)	TGI (HCC-2998 colon)	TGI (UACC-62 melanoma)	TGI (HCT-116 colon)	TGI (COLO 205 colon)	TGI (HCT-15 colon)	TGI (SR leukemia)	TGI (DU-145 prostate)	TGI (OVCAR-5 ovarian)	TGI (RXF 393 renal)	TGI (SW-620 colon)	TGI (BT-549 breast)	TGI (DMS 114 small cell lung)
CC(C)=CCC/C(C)=C/CC/C(C)=C/CC(CO)N(C)CC/C=C(\C)CCC=C(C)C (centres undefined)	14.5 µM	3.89 µM	3.75 µM	21.8 µM	21.5 µM	23.8 µM	17.9 µM	14.4 µM	10.8 µM	29.9 µM	6.46 µM	6.85 µM	14.8 µM	4.8 µM	23.7 µM	21.2 µM	12.8 µM	13.7 µM	27.5 µM	–
CCCCC/C=C1\CCC(CN(C)C)C1=O (centres undefined)	17 µM	13.4 µM	28.1 µM	34.6 µM	36.9 µM	27.3 µM	31.4 µM	23.9 µM	31 µM	29.4 µM	25 µM	22.6 µM	10 µM	21.6 µM	–	33.7 µM	–	11.7 µM	–	29 µM
C=C1CC/C=C(\C)CCC[C@H](C)[C@@H](O)[C@@H]2OC(=O)C(=C)[C@@H]2C[C@H]1O	29.9 µM	4.96 µM	28.4 µM	26.8 µM	28.7 µM	9.5 µM	19.2 µM	22.2 µM	50.5 µM	25.9 µM	30.5 µM	29.9 µM	13.1 µM	> 100 µM	17.8 µM	39.2 µM	22.2 µM	> 32.4 µM	3 µM	–
NCC(=O)Nc1ccc(S(=O)(=O)O)c2cc(S(=O)(=O)O)cc(S(=O)(=O)O)c12	> 100 µM	> 100 µM	> 100 µM	> 100 µM	> 100 µM	> 100 µM	> 100 µM	> 100 µM	> 100 µM	> 100 µM	> 100 µM	> 100 µM	> 100 µM	> 100 µM	> 100 µM	> 100 µM	> 100 µM	> 100 µM	> 100 µM	–
CC1OC(OC2C(OC(=O)[C@]34CCC(C)(C)C[C@H]3C3=CC[C@@H]5[C@@]6(C)CC[C@H](OC7OC(CO)C(O)C(O)C7OC7OC(CO)C(O)C(O)C7O)C(C)(C)[C@@H]6CC[C@@]5(C)[C@]3(C)CC4)OCC(O)C2O)C(O)C(OC2OCC(O)C(O)C2O)C1OC1OCC(O)C(OC2OCC(O)C(O)C2O)C1O (some centres undefined)	21.8 µM	9.56 µM	6.3 µM	25.1 µM	49.5 µM	25.9 µM	4.98 µM	4.85 µM	4.38 µM	30.2 µM	> 100 µM	8.16 µM	> 79.4 µM	16.2 µM	38.3 µM	23.5 µM	55.5 µM	> 55.6 µM	31.4 µM	–
COc1ccc(N=NC(=O)NC(CC(C)C)C(=O)NC(C)C(=O)O)cc1 (centres undefined)	> 100 µM	> 100 µM	> 100 µM	> 100 µM	> 100 µM	> 100 µM	> 26.6 µM	> 100 µM	> 100 µM	> 100 µM	> 100 µM	16.3 µM	> 100 µM	> 100 µM	> 100 µM	> 100 µM	> 100 µM	> 100 µM	> 100 µM	–
COC(=O)/C=C\C(C#N)(C#N)N=Cc1cc(Br)cs1	48 µM	2.9 µM	6.48 µM	13.5 µM	32.5 µM	4.93 µM	5.01 µM	10.4 µM	30.8 µM	33 µM	3.72 µM	3.99 µM	6.37 µM	> 100 µM	19.1 µM	20.8 µM	5.38 µM	2.72 µM	17.9 µM	–
CC1C=CN(N(C)C)C2=C1C(=O)c1cnccc1C2=O (centres undefined)	2.8 µM	0.55 µM	1.62 µM	0.823 µM	2.31 µM	1.06 µM	0.39 µM	2.07 µM	1.8 µM	0.342 µM	1.48 µM	2.45 µM	1.23 µM	0.196 µM	1.39 µM	2.83 µM	1.46 µM	1.83 µM	1.66 µM	–
COc1ccc2c(C(=O)c3cn(CCN4CCOCC4)c4ccccc34)cccc2c1	> 100 µM	> 100 µM	> 87.5 µM	> 100 µM	> 100 µM	> 100 µM	> 100 µM	> 100 µM	> 100 µM	> 100 µM	> 100 µM	> 92 µM	> 100 µM	> 100 µM	> 100 µM	> 100 µM	> 100 µM	> 100 µM	> 100 µM	–
COc1cccc2nc3c(C(=O)NCCN(C)C)cccc3cc12	13.6 µM	3.42 µM	4.37 µM	6.05 µM	15.9 µM	2.85 µM	2.99 µM	9.85 µM	12.3 µM	7.77 µM	14.9 µM	2.55 µM	11.2 µM	3.15 µM	14.4 µM	6.5 µM	9.74 µM	4.83 µM	10.7 µM	–
Cc1c2cccc-2c(OCCO)cc2c3ccccc3n(C)c12	12.9 µM	4.8 µM	12.2 µM	> 100 µM	18.6 µM	24 µM	10.6 µM	21.4 µM	14.6 µM	17.5 µM	12.8 µM	3.24 µM	45 µM	6.12 µM	20.6 µM	16.1 µM	> 100 µM	67.3 µM	13.4 µM	–
C=C(C)C1CCC2(C)CC1c1c(c(C)cc3c1[nH]c1ccccc13)O2 (centres undefined)	> 25 µM	> 25 µM	> 25 µM	–	> 25 µM	> 25 µM	> 25 µM	> 25 µM	> 25 µM	> 25 µM	> 25 µM	> 25 µM	> 25 µM	> 25 µM	–	> 25 µM	–	> 25 µM	–	> 25 µM
CCOC(=O)C(CCN1CCC2(CC1)C(=O)N(C)CN2c1ccccc1)C(=O)OCC	> 100 µM	> 100 µM	> 100 µM	> 100 µM	> 100 µM	> 100 µM	> 100 µM	> 100 µM	> 100 µM	> 100 µM	> 100 µM	> 100 µM	> 100 µM	> 100 µM	> 100 µM	> 100 µM	> 100 µM	> 100 µM	> 100 µM	–
COC1=C(Br)[C@H](O)[C@@]2(C=C1Br)CC(C(=O)NCCCOc1c(Br)cc(C(O)CNC(C)=O)cc1Br)=NO2 (some centres undefined)	> 10 µM	> 10 µM	> 10 µM	> 10 µM	> 10 µM	> 10 µM	> 10 µM	> 10 µM	> 10 µM	> 10 µM	> 10 µM	> 10 µM	> 10 µM	1.77 µM	> 10 µM	> 10 µM	> 10 µM	> 10 µM	> 10 µM	–
COc1ccc(C[C@H]2COC(=O)[C@@H]2Cc2cccc(Br)c2)cc1OC	43.3 µM	47.5 µM	27.8 µM	> 100 µM	> 100 µM	84.9 µM	82.3 µM	68.4 µM	66.4 µM	> 100 µM	> 100 µM	28.7 µM	> 100 µM	32.8 µM	> 100 µM	> 100 µM	77.6 µM	83.3 µM	61.2 µM	–
CC(Oc1ccc(Cl)cc1Cl)C(=O)NN1C(=O)CSC1c1ccccc1 (centres undefined)	> 100 µM	> 100 µM	> 100 µM	> 100 µM	> 100 µM	> 100 µM	> 100 µM	> 100 µM	> 100 µM	> 100 µM	> 100 µM	> 100 µM	> 100 µM	19.2 µM	> 100 µM	> 100 µM	> 100 µM	> 100 µM	46.5 µM	–
COc1ccc(C(C#N)NNC(=O)Cc2ccccc2)cc1OC (centres undefined)	> 100 µM	> 100 µM	> 100 µM	> 100 µM	–	> 100 µM	> 100 µM	> 100 µM	–	> 100 µM	> 100 µM	> 100 µM	> 100 µM	> 100 µM	–	> 100 µM	> 100 µM	> 100 µM	–	> 100 µM
CCOC(=O)/C=C(\C(=O)OCC)n1ccc(=O)n(Cc2cn(CCCCOC(C)=O)nn2)c1=O	31.5 µM	4.03 µM	54.8 µM	32.3 µM	> 55.6 µM	11.4 µM	28.6 µM	21.2 µM	41 µM	33.2 µM	> 47.4 µM	> 36.2 µM	25.3 µM	> 36 µM	45.4 µM	31.4 µM	47.4 µM	8.38 µM	24.7 µM	–
CC1=C(/C=C/C(C)=C/C=C/C(C)=C/C(=O)OC2CC(n3cc(F)c(=O)[nH]c3=O)OC2CO)C(C)(C)CCC1 (centres undefined)	31.4 µM	11.4 µM	17.4 µM	20.7 µM	23.6 µM	11.6 µM	14.9 µM	24.6 µM	26.8 µM	4.96 µM	14.4 µM	25.8 µM	27.6 µM	> 47.2 µM	13.4 µM	36.8 µM	24 µM	26.9 µM	22.3 µM	–
COc1cccc(C2CC23C(=O)NC(=O)NC3=O)c1 (centres undefined)	> 100 µM	> 100 µM	> 100 µM	> 100 µM	> 100 µM	> 100 µM	> 100 µM	> 100 µM	> 100 µM	> 100 µM	> 100 µM	> 100 µM	> 100 µM	> 100 µM	–	> 100 µM	–	> 100 µM	–	> 100 µM
CC(C)C(C/C=C1\CC(CO)(COC(=O)C(C)(C)C)OC1=O)C(C)C (centres undefined)	28.2 µM	29 µM	29.8 µM	19.7 µM	26 µM	24.4 µM	18.3 µM	26.4 µM	24.8 µM	31.3 µM	22.7 µM	11.4 µM	29.8 µM	> 100 µM	19.6 µM	25.4 µM	33.5 µM	17.1 µM	24.5 µM	–
O=C1c2ccccc2C(=O)c2c1nc1ccccc1c2-c1cncc(-c2c3c(nc4ccccc24)C(=O)c2ccccc2C3=O)c1	> 61.6 µM	19.6 µM	32.4 µM	2.62 µM	> 82.7 µM	> 55.7 µM	31.8 µM	28.7 µM	49.7 µM	19.9 µM	24.7 µM	19.8 µM	9.34 µM	7.9 µM	16.1 µM	> 100 µM	> 100 µM	37.8 µM	40 µM	–
COC(C)(C)OCCN1CCN(CCN2C3=C(C=C(C(C)=O)C3)Sc3ccccc32)CC1	32.6 µM	33.2 µM	40.4 µM	73.5 µM	93.3 µM	35.5 µM	43.1 µM	32.9 µM	36.2 µM	29.4 µM	33.6 µM	33.4 µM	40.9 µM	33.2 µM	68.8 µM	59.1 µM	42.2 µM	37.2 µM	44.1 µM	–
CCOC(=O)/C(=C/c1ccc(N(C)C)cc1)N(CC)CC	> 100 µM	> 100 µM	> 100 µM	> 100 µM	> 100 µM	> 100 µM	> 100 µM	> 100 µM	> 100 µM	> 100 µM	> 100 µM	> 100 µM	> 100 µM	> 100 µM	–	> 100 µM	–	> 100 µM	–	> 100 µM
